We go through 13 molecules from US20260022142A1, “MACROCYCLIC IMMUNOMODULATORS” (Bristol-Myers Squibb Company, priority 2022, published 2026).

Structures are written as SMILES. Bridge positions count the residues as written; N and C are the ends. Square brackets hold non-standard residues; d marks the D form. Peptide text beside a SMILES is read from it. * marks the point of attachment. Bip = N[C@@H](Cc1ccc(-c2ccccc2)cc1)C(=O)O; Phe(3-Me) = Cc1cccc(C[C@H](N)C(=O)O)c1; Cha = N[C@@H](CC1CCCCC1)C(=O)O; Carboxymethyl = O=C(O)C*; Orn = NCCC[C@H](N)C(=O)O; Aun = NCCCCCCCCCCC(=O)O; Dab = NCC[C@H](N)C(=O)O; Dap = NC[C@H](N)C(=O)O; AEEA = NCCOCCOCC(=O)O

T1 sequence (Q15116 25-288): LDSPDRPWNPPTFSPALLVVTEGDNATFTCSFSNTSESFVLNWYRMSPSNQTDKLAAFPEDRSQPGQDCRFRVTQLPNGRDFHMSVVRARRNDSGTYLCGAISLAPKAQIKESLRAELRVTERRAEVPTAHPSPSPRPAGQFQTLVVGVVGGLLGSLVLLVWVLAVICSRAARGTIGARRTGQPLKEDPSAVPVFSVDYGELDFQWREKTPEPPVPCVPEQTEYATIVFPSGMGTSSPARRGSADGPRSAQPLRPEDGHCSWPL

This assay has as its target T1, PD-1/PD-L1 interaction (PE-labeled human PD-L1-Ig binding to Jurkat cell line over-expressing human PD-1) (Homo sapiens, UniProt Q15116).
T1 construct: expressed in transfected cells; host or cells: Jurkat
Nature of the assay: Jurkat-PD-1 Cell Binding High-Content Screening Assay (CBA). The format is cell-based. The conditions noted are these: Jurkat cell line over-expressing human PD-1; PE-labeled PD-L1-Ig 20 nM final; read-out: Jurkat hPD1-PDL1 IC50. Summed up:
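Jurkat-hPD-1 cells, DMEM/10% FCS; cpd 2 h 37° C; PE-PD-L1-Ig 20 nM final, 1 h; 4% PFA fix + Hoechst 33342, 3× dPBS wash; high-content imaging read-out.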
Usually IC50 stands for the concentration needed to halve the response being measured. As to `CC(C)C[C@H]1NC(=O)[C@H](CCCN)NC(=O)[C@H](C(C)C)NC(=O)[C@H](Cc2ccc(-c3ccccc3)cc2)NC(=O)[C@H](C(C)C)NC(=O)[C@H](Cc2c[nH]c3ccccc23)NC(=O)[C@H](CC(=O)O)NC(=O)[C@H](Cc2ccc(OCC(=O)O)cc2)NC(=O)[C@H](CN)NC(=O)CSC[C@@H](C(=O)N[C@@H](C)C(=O)N[C@@H](CN)C(=O)NCCCCCCCCCCC(=O)O)NC(=O)[C@H]([C@@H](C)O)NC(=O)[C@H](C(C)C)NC(=O)[C@H](CC2CCCCC2)NC(=O)[C@H](Cc2cnc[nH]2)NC1=O` [Compound 1081] ({CH2CO}-[Dap]Y(Carboxymethyl)DWV[Bip]V[Orn][dL]H[Cha]VTCA[Dap][Aun]-OH; thioether N-14), the IC50 is 28.5 nM.

Turning to `CC(C)C[C@H]1NC(=O)[C@H](CCCN)NC(=O)[C@H](C(C)C)NC(=O)[C@H](Cc2ccc(-c3ccccc3)cc2)NC(=O)[C@H](C(C)C)NC(=O)[C@H](Cc2c[nH]c3ccccc23)NC(=O)[C@H](CC(=O)O)NC(=O)[C@H](Cc2ccc(OCC(=O)O)cc2)NC(=O)[C@H](CN)NC(=O)CSC[C@@H](C(=O)N[C@@H](C)C(=O)N[C@@H](CCN)C(=O)NCCCCCCCCCCC(=O)O)NC(=O)[C@H]([C@@H](C)O)NC(=O)[C@H](C(C)C)NC(=O)[C@H](CC2CCCCC2)NC(=O)[C@H](Cc2cnc[nH]2)NC1=O` [Compound 1082] ({CH2CO}-[Dap]Y(Carboxymethyl)DWV[Bip]V[Orn][dL]H[Cha]VTCA[Dab][Aun]-OH; thioether N-14), the IC50 amounted to 24.7 nM.

For the molecule `CC(C)C[C@H]1NC(=O)[C@H](CCCN)NC(=O)[C@H](C(C)C)NC(=O)[C@H](Cc2ccc(-c3ccccc3)cc2)NC(=O)[C@H](C(C)C)NC(=O)[C@H](Cc2c[nH]c3ccccc23)NC(=O)[C@H](CC(=O)O)NC(=O)[C@H](Cc2ccc(OCC(=O)O)cc2)NC(=O)[C@H](CN)NC(=O)CSC[C@@H](C(=O)N[C@@H](C)C(=O)N[C@@H](CCCN)C(=O)NCC(=O)NCCCCCCCCCCC(=O)O)NC(=O)[C@H]([C@@H](C)O)NC(=O)[C@H](C(C)C)NC(=O)[C@H](CC2CCCCC2)NC(=O)[C@H](Cc2c[nH]cn2)NC1=O` [Compound 1086] ({CH2CO}-[Dap]Y(Carboxymethyl)DWV[Bip]V[Orn][dL]H[Cha]VTCA[Orn]G[Aun]-OH; thioether N-14), the IC50 is 21 nM.

Turning to `CC(C)C[C@H]1NC(=O)[C@H](CCCN)NC(=O)[C@H](C(C)C)NC(=O)[C@H](Cc2ccc(-c3ccccc3)cc2)NC(=O)[C@H](C(C)C)NC(=O)[C@H](Cc2c[nH]c3ccccc23)NC(=O)[C@H](CC(=O)O)NC(=O)[C@H](Cc2ccc(OCC(=O)O)cc2)NC(=O)[C@H](CN)NC(=O)CSC[C@@H](C(=O)N[C@@H](C)C(=O)N[C@@H](CCC(=O)O)C(=O)NCC(=O)NCCCCCCCCCCC(=O)O)NC(=O)[C@H]([C@@H](C)O)NC(=O)[C@H](C(C)C)NC(=O)[C@H](CC2CCCCC2)NC(=O)[C@H](Cc2c[nH]cn2)NC1=O` [Compound 1088] ({CH2CO}-[Dap]Y(Carboxymethyl)DWV[Bip]V[Orn][dL]H[Cha]VTCAEG[Aun]-OH; thioether N-14), the IC50 worked out at 25 nM.

As to `CC(C)C[C@H]1NC(=O)[C@H](CCCN)NC(=O)[C@H](C(C)C)NC(=O)[C@H](Cc2ccc(-c3ccccc3)cc2)NC(=O)[C@H](C(C)C)NC(=O)[C@H](Cc2c[nH]c3ccccc23)NC(=O)[C@H](CC(=O)O)NC(=O)[C@H](Cc2ccc(OCC(=O)O)cc2)NC(=O)[C@H](CN)NC(=O)CSC[C@@H](C(=O)N[C@@H](C)C(=O)N[C@@H](CC(=O)O)C(=O)NCC(=O)NCCCCCCCCCCC(=O)O)NC(=O)[C@H]([C@@H](C)O)NC(=O)[C@H](C(C)C)NC(=O)[C@H](CC2CCCCC2)NC(=O)[C@H](Cc2cnc[nH]2)NC1=O` [Compound 1089] ({CH2CO}-[Dap]Y(Carboxymethyl)DWV[Bip]V[Orn][dL]H[Cha]VTCADG[Aun]-OH; thioether N-14), the IC50 came out at 33.1 nM.

`CC(C)C[C@H]1NC(=O)[C@H](CCCN)NC(=O)[C@H](C(C)C)NC(=O)[C@H](Cc2ccc(-c3ccccc3)cc2)NC(=O)[C@H](C(C)C)NC(=O)[C@H](Cc2c[nH]c3ccccc23)NC(=O)[C@H](CC(=O)O)NC(=O)[C@H](Cc2ccc(OCC(=O)O)cc2)NC(=O)[C@H](CN)NC(=O)CSC[C@@H](C(=O)N[C@@H](C)C(=O)N[C@@H](CCCCN)C(=O)NCCCCCCCCCCC(=O)O)NC(=O)[C@H]([C@@H](C)O)NC(=O)[C@H](C(C)C)NC(=O)[C@H](CC2CCCCC2)NC(=O)[C@H](Cc2cnc[nH]2)NC1=O` [Compound 1090] ({CH2CO}-[Dap]Y(Carboxymethyl)DWV[Bip]V[Orn][dL]H[Cha]VTCAK[Aun]-OH; thioether N-14): the IC50 is 38.9 nM.

As for `CC(C)C[C@H]1NC(=O)[C@H](CCCN)NC(=O)[C@H](C(C)C)NC(=O)[C@H](Cc2ccc(-c3ccccc3)cc2)NC(=O)[C@H](C(C)C)NC(=O)[C@H](Cc2c[nH]c3ccccc23)NC(=O)[C@H](CC(=O)O)NC(=O)[C@H](Cc2ccc(OCC(=O)O)cc2)NC(=O)[C@H](CN)NC(=O)CSC[C@@H](C(=O)N[C@@H](C)C(=O)N[C@@H](CCCN)C(=O)NCCCCCCCCCCC(=O)O)NC(=O)[C@H]([C@@H](C)O)NC(=O)[C@H](C(C)C)NC(=O)[C@H](CC2CCCCC2)NC(=O)[C@H](Cc2cnc[nH]2)NC1=O` [Compound 1091] ({CH2CO}-[Dap]Y(Carboxymethyl)DWV[Bip]V[Orn][dL]H[Cha]VTCA[Orn][Aun]-OH; thioether N-14), the IC50 is 31.5 nM.

With `CC(C)C[C@H]1NC(=O)[C@H](CCCN)NC(=O)[C@H](C(C)C)NC(=O)[C@H](Cc2ccc(-c3ccccc3)cc2)NC(=O)[C@H](C(C)C)NC(=O)[C@H](Cc2c[nH]c3ccccc23)NC(=O)[C@H](CC(=O)O)NC(=O)[C@H](Cc2ccc(OCC(=O)O)cc2)NC(=O)[C@H](CN)NC(=O)CSC[C@@H](C(=O)N[C@@H](CC(=O)O)C(=O)NCC(=O)NCCCCCCCCCCC(=O)O)NC(=O)[C@H]([C@@H](C)O)NC(=O)[C@H](C(C)C)NC(=O)[C@H](CC2CCCCC2)NC(=O)[C@H](Cc2cnc[nH]2)NC1=O` [Compound 1092] ({CH2CO}-[Dap]Y(Carboxymethyl)DWV[Bip]V[Orn][dL]H[Cha]VTCDG[Aun]-OH; thioether N-14), the IC50 came to 37.3 nM.

For the molecule `Cc1cccc(C[C@@H]2NC(=O)[C@H](CC(=O)O)NC(=O)[C@H](Cc3ccc(OCC(=O)O)cc3)NC(=O)[C@H](CN)NC(=O)CSC[C@@H](C(=O)N[C@@H](CC(=O)O)C(=O)NCC(=O)NCCCCCCCCCCC(=O)O)NC(=O)[C@H]([C@@H](C)O)NC(=O)[C@H](C(C)C)NC(=O)[C@H](CC3CCCCC3)NC(=O)[C@H](Cc3cnc[nH]3)NC(=O)[C@@H](CC(C)C)NC(=O)[C@H](CCCN)NC(=O)[C@H](C(C)C)NC(=O)[C@H](Cc3ccc(-c4ccccc4)cc3)NC(=O)[C@H](C(C)C)NC2=O)c1` [Compound 1093] ({CH2CO}-[Dap]Y(Carboxymethyl)D[Phe(3-Me)]V[Bip]V[Orn][dL]H[Cha]VTCDG[Aun]-OH; thioether N-14), the IC50 stood at 11.8 nM.

In the case of `CC(C)C[C@H]1NC(=O)[C@H](CCCN)NC(=O)[C@H](C(C)C)NC(=O)[C@H](Cc2ccc(-c3ccccc3)cc2)NC(=O)[C@H](C(C)C)NC(=O)[C@H](Cc2c[nH]c3ccccc23)NC(=O)[C@H](CC(=O)O)NC(=O)[C@H](Cc2ccc(OCC(=O)O)cc2)NC(=O)[C@H](CN)NC(=O)CSC[C@@H](C(=O)N[C@@H](CCC(=O)O)C(=O)NCC(=O)NCCCCCCCCCCC(=O)O)NC(=O)[C@H]([C@@H](C)O)NC(=O)[C@H](C(C)C)NC(=O)[C@H](CC2CCCCC2)NC(=O)[C@H](Cc2cnc[nH]2)NC1=O` [Compound 1094] ({CH2CO}-[Dap]Y(Carboxymethyl)DWV[Bip]V[Orn][dL]H[Cha]VTCEG[Aun]-OH; thioether N-14), the IC50 is 17.2 nM.

For the molecule `CC(C)C[C@H]1NC(=O)[C@H](CCCN)NC(=O)[C@H](C(C)C)NC(=O)[C@H](Cc2ccc(-c3ccccc3)cc2)NC(=O)[C@H](C(C)C)NC(=O)[C@H](Cc2c[nH]c3ccccc23)NC(=O)[C@H](CC(=O)O)NC(=O)[C@H](Cc2ccc(OCC(=O)O)cc2)NC(=O)[C@H](CN)NC(=O)CSC[C@@H](C(=O)NCCOCCOCC(=O)N[C@@H](CN)C(=O)NCCCCCCCCCCC(=O)O)NC(=O)[C@H]([C@@H](C)O)NC(=O)[C@H](C(C)C)NC(=O)[C@H](CC2CCCCC2)NC(=O)[C@H](Cc2cnc[nH]2)NC1=O` [Compound 1095] ({CH2CO}-[Dap]Y(Carboxymethyl)DWV[Bip]V[Orn][dL]H[Cha]VTC[AEEA][Dap][Aun]-OH; thioether N-14), the IC50 came to 15.7 nM.

In the case of `CC(C)C[C@H]1NC(=O)[C@H](CCCN)NC(=O)[C@H](C(C)C)NC(=O)[C@H](Cc2ccc(-c3ccccc3)cc2)NC(=O)[C@H](C(C)C)NC(=O)[C@H](Cc2c[nH]c3ccccc23)NC(=O)[C@H](CC(=O)O)NC(=O)[C@H](Cc2ccc(OCC(=O)O)cc2)NC(=O)[C@H](CN)NC(=O)CSC[C@@H](C(=O)NCCOCCOCC(=O)N[C@@H](CCN)C(=O)NCCCCCCCCCCC(=O)O)NC(=O)[C@H]([C@@H](C)O)NC(=O)[C@H](C(C)C)NC(=O)[C@H](CC2CCCCC2)NC(=O)[C@H](Cc2cnc[nH]2)NC1=O` [Compound 1096] ({CH2CO}-[Dap]Y(Carboxymethyl)DWV[Bip]V[Orn][dL]H[Cha]VTC[AEEA][Dab][Aun]-OH; thioether N-14), the IC50 turned out to be 15.7 nM.

Take `CC(C)C[C@H]1NC(=O)[C@H](CCCN)NC(=O)[C@H](C(C)C)NC(=O)[C@H](Cc2ccc(-c3ccccc3)cc2)NC(=O)[C@H](C(C)C)NC(=O)[C@H](Cc2c[nH]c3ccccc23)NC(=O)[C@H](CC(=O)O)NC(=O)[C@H](Cc2ccc(OCC(=O)O)cc2)NC(=O)[C@H](CN)NC(=O)CSC[C@@H](C(=O)NCCOCCOCC(=O)N[C@@H](CCCN)C(=O)NCCCCCCCCCCC(=O)O)NC(=O)[C@H]([C@@H](C)O)NC(=O)[C@H](C(C)C)NC(=O)[C@H](CC2CCCCC2)NC(=O)[C@H](Cc2cnc[nH]2)NC1=O` [Compound 1097] ({CH2CO}-[Dap]Y(Carboxymethyl)DWV[Bip]V[Orn][dL]H[Cha]VTC[AEEA][Orn][Aun]-OH; thioether N-14): the IC50 worked out at 14.9 nM.
